Test results reported in the NIST ThermoML archive (doi:10.1016/j.jct.2007.07.002).
± gives the expanded uncertainty stated by the source.

Conditions: Gas, double Helmholtz acoustic resonator

N [ammonia]
Conditions | kinematic viscosity [m2/s] | speed of sound [m/s]
300 K, 223.53 kPa | 6.47e-06 ± 1.4e-07 | 431 ± 0.26
300 K, 259.87 kPa | 5.47e-06 ± 3.2e-07 | 429.55 ± 0.26
300 K, 329.51 kPa | 4.32e-06 ± 5.2e-08 | 428.07 ± 0.26
300 K, 361.99 kPa | 3.95e-06 ± 7.2e-08 | 426.77 ± 0.26
300 K, 447.86 kPa | 3.14e-06 ± 3.8e-08 | 424.67 ± 0.26
300 K, 465.77 kPa | 3.02e-06 ± 5.4e-08 | 423.73 ± 0.26
300 K, 568.68 kPa | 2.45e-06 ± 2.9e-08 | 421.02 ± 0.25
300 K, 569.79 kPa | 2.45e-06 ± 4.4e-08 | 420.63 ± 0.25
300 K, 676.75 kPa | 2.03e-06 ± 2.4e-08 | 417.61 ± 0.25
300 K, 692.8 kPa | 1.98e-06 ± 5.6e-08 | 416.7 ± 0.25
300 K, 802.37 kPa | 1.71e-06 ± 2.6e-08 | 413.01 ± 0.25
300 K, 802.82 kPa | 1.7e-06 ± 2e-08 | 413.38 ± 0.25
315 K, 250.83 kPa | 6.41e-06 ± 7.8e-08 | 441.42 ± 0.27
315 K, 378.83 kPa | 4.19e-06 ± 6.8e-08 | 438.52 ± 0.26
315 K, 506.43 kPa | 3.08e-06 ± 3.7e-08 | 435.46 ± 0.26
315 K, 661.04 kPa | 2.34e-06 ± 2.8e-08 | 431.69 ± 0.26
315 K, 791.02 kPa | 1.92e-06 ± 2.3e-08 | 428.35 ± 0.26
315 K, 938.74 kPa | 1.59e-06 ± 1.9e-08 | 424.43 ± 0.26
315 K, 1080.9 kPa | 1.36e-06 ± 1.6e-08 | 420.46 ± 0.25
315 K, 1285 kPa | 1.13e-06 ± 1.4e-08 | 414.39 ± 0.25
330 K, 308.27 kPa | 5.77e-06 ± 1.5e-07 | 450.9 ± 0.27
330 K, 473.84 kPa | 3.68e-06 ± 4.4e-08 | 447.68 ± 0.27
330 K, 664.29 kPa | 2.58e-06 ± 3.1e-08 | 443.84 ± 0.27
330 K, 822.59 kPa | 2.06e-06 ± 2.5e-08 | 440.54 ± 0.27
330 K, 977.41 kPa | 1.71e-06 ± 2.1e-08 | 437.21 ± 0.26
330 K, 1142.1 kPa | 1.44e-06 ± 1.7e-08 | 433.54 ± 0.26
330 K, 1294.8 kPa | 1.25e-06 ± 1.5e-08 | 430.01 ± 0.26
330 K, 1480.5 kPa | 1.08e-06 ± 1.3e-08 | 425.54 ± 0.26
330 K, 1640.8 kPa | 9.57e-07 ± 1.2e-08 | 421.5 ± 0.25
330 K, 1792 kPa | 8.66e-07 ± 1e-08 | 417.52 ± 0.25
330 K, 1945.8 kPa | 7.91e-07 ± 9.5e-09 | 413.28 ± 0.25
345 K, 297.74 kPa | 6.5e-06 ± 7.8e-08 | 461.31 ± 0.28
345 K, 504.54 kPa | 3.78e-06 ± 4.5e-08 | 457.91 ± 0.28
345 K, 708.88 kPa | 2.67e-06 ± 3.2e-08 | 454.47 ± 0.27
345 K, 914.14 kPa | 2.04e-06 ± 2.5e-08 | 450.88 ± 0.27
345 K, 1123.2 kPa | 1.64e-06 ± 2e-08 | 447.09 ± 0.27
345 K, 1332.1 kPa | 1.36e-06 ± 1.6e-08 | 443.17 ± 0.27
345 K, 1537 kPa | 1.16e-06 ± 1.4e-08 | 439.19 ± 0.26
345 K, 1744.6 kPa | 1e-06 ± 1.2e-08 | 435.01 ± 0.26
345 K, 1955.1 kPa | 8.8e-07 ± 1.1e-08 | 430.58 ± 0.26
345 K, 2315.6 kPa | 7.21e-07 ± 8.7e-09 | 422.55 ± 0.25
345 K, 2530 kPa | 6.5e-07 ± 7.8e-09 | 417.46 ± 0.25
345 K, 2769 kPa | 5.84e-07 ± 7e-09 | 411.45 ± 0.25
360 K, 242.7 kPa | 8.74e-06 ± 1.1e-07 | 471.71 ± 0.28
360 K, 453.28 kPa | 4.68e-06 ± 8.2e-08 | 468.86 ± 0.28
360 K, 661.35 kPa | 3.16e-06 ± 3.8e-08 | 465.91 ± 0.28
360 K, 865.15 kPa | 2.39e-06 ± 2.9e-08 | 462.91 ± 0.28
360 K, 1069.7 kPa | 1.9e-06 ± 2.3e-08 | 459.84 ± 0.28
360 K, 1277.8 kPa | 1.57e-06 ± 1.9e-08 | 456.62 ± 0.27
360 K, 1481.2 kPa | 1.34e-06 ± 1.6e-08 | 453.38 ± 0.27
360 K, 1690.7 kPa | 1.16e-06 ± 1.4e-08 | 449.97 ± 0.27
360 K, 1894.8 kPa | 1.02e-06 ± 1.2e-08 | 446.53 ± 0.27
360 K, 2277.4 kPa | 8.28e-07 ± 9.9e-09 | 439.83 ± 0.27
360 K, 2480.7 kPa | 7.49e-07 ± 9e-09 | 436.1 ± 0.26
360 K, 2738.8 kPa | 6.66e-07 ± 8e-09 | 431.2 ± 0.26
360 K, 3050.5 kPa | 5.85e-07 ± 7e-09 | 424.97 ± 0.26
360 K, 3365.4 kPa | 5.19e-07 ± 6.2e-09 | 418.3 ± 0.25
375 K, 260.57 kPa | 1.01e-05 ± 3.8e-06 | 480.64 ± 1.5
375 K, 483.31 kPa | 4.9e-06 ± 8e-07 | 478.26 ± 0.4
375 K, 684.74 kPa | 3.42e-06 ± 2.2e-07 | 475.65 ± 0.29
375 K, 897.66 kPa | 2.57e-06 ± 6e-08 | 473 ± 0.28
375 K, 1130.7 kPa | 1.96e-06 ± 6.8e-08 | 469.93 ± 0.28
375 K, 1341.7 kPa | 1.63e-06 ± 4.2e-08 | 467.14 ± 0.28
375 K, 1583.8 kPa | 1.37e-06 ± 1.6e-08 | 463.89 ± 0.28
375 K, 1793.4 kPa | 1.2e-06 ± 2e-08 | 461.01 ± 0.28
375 K, 2026.3 kPa | 1.04e-06 ± 1.4e-08 | 457.7 ± 0.28
375 K, 2290.4 kPa | 9.12e-07 ± 1.1e-08 | 453.87 ± 0.27
375 K, 2599.9 kPa | 7.94e-07 ± 1.2e-08 | 449.23 ± 0.27
375 K, 2933.1 kPa | 6.9e-07 ± 8.3e-09 | 444.04 ± 0.27
375 K, 3140.5 kPa | 6.38e-07 ± 8.2e-09 | 440.69 ± 0.27
375 K, 3379.2 kPa | 5.88e-07 ± 9e-09 | 436.74 ± 0.26
